Reference: US10143686B2, “Oxidosqualene cyclase as a protein target for anticancer therapeutics” (The Curators of the University of Missouri, priority 2010, dated 2018)

How the values were obtained:
OSC = molecular target: T1, OSC (Homo sapiens, UniProt P48449); details: value in parentheses not explained in the patent; cited from earlier work
T1 sequence (P48449 1-732): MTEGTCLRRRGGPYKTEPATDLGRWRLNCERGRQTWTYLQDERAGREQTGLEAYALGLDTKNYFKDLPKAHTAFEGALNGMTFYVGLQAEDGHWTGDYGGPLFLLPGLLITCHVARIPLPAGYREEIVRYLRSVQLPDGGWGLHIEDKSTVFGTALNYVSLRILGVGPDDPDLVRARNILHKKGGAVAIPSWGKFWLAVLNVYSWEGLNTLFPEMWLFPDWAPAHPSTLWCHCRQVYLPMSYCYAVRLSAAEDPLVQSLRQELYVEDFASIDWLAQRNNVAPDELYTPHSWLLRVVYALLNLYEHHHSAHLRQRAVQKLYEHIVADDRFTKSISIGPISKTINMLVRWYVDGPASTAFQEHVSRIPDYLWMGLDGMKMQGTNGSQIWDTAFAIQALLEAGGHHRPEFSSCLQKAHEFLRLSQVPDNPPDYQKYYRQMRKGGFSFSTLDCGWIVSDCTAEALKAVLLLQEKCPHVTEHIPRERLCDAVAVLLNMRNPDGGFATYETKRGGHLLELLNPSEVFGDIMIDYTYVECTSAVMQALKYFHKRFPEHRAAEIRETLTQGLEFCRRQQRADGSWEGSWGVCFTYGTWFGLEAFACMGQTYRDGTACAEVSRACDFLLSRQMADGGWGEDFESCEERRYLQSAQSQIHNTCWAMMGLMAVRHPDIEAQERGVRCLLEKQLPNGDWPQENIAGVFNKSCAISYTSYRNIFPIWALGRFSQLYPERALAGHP

[1] = system: T47-D breast cancer cells; assay: SRB cell viability assay, T47-D; format: cell-based; details: 24 hours, dose-dependent, FIG. 2B
Experimental: (§1) The sulforhodamine B (SRB) assay was employed to evaluate the effect of OSC inhibitor Ro 48-8071 on viability of breast cancer and normal mammary gland cells with slight modification of the original procedure established at NCI. Accordingly, the cells were seeded in 96-well plates in 100 μl culture medium and incubated overnight at 37° C. with 5% CO2. […] The surviving or adherent cells were fixed in situ by withdrawing the growth medium and adding 100 μl of PBS and 100 μl of 50% cold trichloroacetic acid and then incubating at 4° C. for 1 h. The surviving cells were washed with ice-water, dried at room temperature (RT), and then stained with 50 μl 4% SRB for 8 min at RT. Unbound dye was removed by washing 5 times with cold 1% acetic acid, and the plates were dried at RT. Bound stain was solubilized with 150 μl 10 mM Tris buffer, and absorbance of samples were measured at 520 nm with a SpecTRA MAX 190 microplate reader (Sunnyvale, Calif.). In these experiments on BT-474, T47-D, and AG11132A cell lines, six wells were used for each concentration, and each experiment was performed at least twice.
(§2) The effect of OSC inhibition was evaluated in additional cancer cell lines as well. Cancer cell lines may be purchased from ATCC (Manassas, Va.). The SRB assay has been employed for determination of the inhibitory effects of RO 48-8071 on growth of different cancer cells. Cells were seeded into 96-well plates and incubated overnight at 37° C. with 5% CO2. The culture medium was removed after 24 hours, and cells were washed with DMEM/F12 medium and then treated with various concentrations of RO 48-8071 in 5% FBS culture medium for 24 and 48 hours. Surviving or adherent cells were fixed in situ by withdrawing the growth medium, adding 100 μl PBS and 100 μl 50% trichloroacetic acid and then incubating at 4° C. for one hour. Cells were washed with ice-cold water, dried at room temperature (RT), and then stained with 50 μl 4% SRB for eight minutes at RT. Unbound dye was removed by washing with cold 1% acetic acid for five times, and plates were dried at RT. Bound stain was solubilized with 150 μl 10 mM Tris buffer and absorbance of samples was read at 520 nm with a SpecTRA MAX 190 microplate reader (Molecular Devices, Sunnyvale, Calif.). Six wells were used for each concentration, and each experiment was performed two to three times.
Effect of RO 48-8071 on breast cancer cell line T47-D viability. […] The culture mediums employed 10% FBS DMEM/F12 for culture and 5% FBS DMEM/F12 for treatment.

[2] = system: BT-474 breast cancer cells; assay: SRB cell viability assay, BT-474; format: cell-based, human; details: BT-474, 24 hours, dose-dependent, FIG. 2A
Experimental: as §1, §2
Effect of RO 48-8071 on breast cancer cell line BT-474 viability. […] The culture mediums employed 10% FBS DMEM/F12 for culture and 5% FBS DMEM/F12 for treatment.

| SMILES | IC50 (OSC) [nM] | effect on cell viability (SRB) [1] | effect on cell viability (SRB) [2] |
| --- | --- | --- | --- |
| CN(CCCCOc1ccc(C(=O)c2ccc(Br)cc2)cc1)C1CC1 | 19 |  |  |
| O=C(c1ccc(Cl)cc1)N1CCC(Cc2ccc(C3=NCCO3)cc2)CC1 | 36 |  |  |
| CCN(CC)CCO[C@H]1CC[C@@]2(C)C(=CC[C@@H]3[C@@H]2CC[C@]2(C)C(=O)CC[C@@H]32)C1 [U18666A, 3-beta-(2-(diethylamino)ethoxy)androst-5-en-17-one] |  | significantly inhibit the viability | significantly inhibit the viability |
| O=C1C2CCN(CC2)C1(CO)CO [PRIMA-1, 2,2-bis(hydroxymethyl)-3-quinuclidinone] |  | significantly inhibit the viability | significantly inhibit the viability |
| C=CCC(C)CCCCCCOc1ccc2c(-c3ccc(Br)cc3)nn(C)c2c1 (stereo not shown) | 19.6 |  |  |
